Measured values taken from the supplement of paper PMC10307832.

Experiments:
Assay in all cases: relative viability (nuclei count vs DMSO), 5 days (fraction); higher = more cells survive
[1] = compound: Cc1ccc(-n2nc(C(C)(C)C)cc2NC(=O)Nc2ccc(OCCN3CCOCC3)c3ccccc23)cc1 [Doramapimod] + O=C(CCCCCCC(=O)Nc1ccccc1)NO [Vorinostat] (partner 1 µM)
How it was run: (§1)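 Lung cancer cell lines in 1536-well plates were dosed by pin tool the day after seeding, either with one drug alone or with a fixed anchor-drug dose plus five library-drug doses (not always all listed) in √10 steps. After 5 days, cells were fixed and their nuclei stained in one step (final 0.05% Triton X-100, 1% formaldehyde, 1 ug/ml Hoechst), then counted on 4× images. Relative viability is the nuclei count in treated wells divided by that in vehicle wells. Values are medians of duplicate plates.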

[2] = compound: Cn1c(Nc2ccc(C(F)(F)F)cc2)nc2cc(Oc3ccnc(-c4ncc(C(F)(F)F)[nH]4)c3)ccc21 [RAF265] + O=C(CCCCCCC(=O)Nc1ccccc1)NO [Vorinostat] (partner 1 µM)
How it was run: as §1

[3] = compound: Cc1ccc(-n2nc(C(C)(C)C)cc2NC(=O)Nc2ccc(OCCN3CCOCC3)c3ccccc23)cc1 [Doramapimod] + C[C@@H](Oc1cc(-c2cnn(C3CCNCC3)c2)cnc1N)c1c(Cl)ccc(F)c1Cl [Crizotinib] (partner 1 µM)
How it was run: as §1

[4] = compound: Cc1ccc(-n2nc(C(C)(C)C)cc2NC(=O)Nc2ccc(OCCN3CCOCC3)c3ccccc23)cc1 [Doramapimod] + Nc1ncn([C@H]2C[C@H](O)[C@@H](CO)O2)c(=O)n1 [Decitabine] (partner 2 µM)
How it was run: as §1

Cell Line	relative viability ([1]; first compound 0.02 µM)	relative viability ([1]; first compound 0.06325 µM)	relative viability ([1]; first compound 0.2 µM)	relative viability ([1]; first compound 0.6325 µM)	relative viability ([1]; first compound 2 µM)	relative viability ([2]; first compound 0.01 µM)	relative viability ([2]; first compound 0.03162 µM)	relative viability ([2]; first compound 0.1 µM)	relative viability ([2]; first compound 0.3162 µM)	relative viability ([2]; first compound 1 µM)	relative viability ([3]; first compound 0.02 µM)	relative viability ([3]; first compound 0.06325 µM)	relative viability ([3]; first compound 0.2 µM)	relative viability ([3]; first compound 0.6325 µM)	relative viability ([3]; first compound 2 µM)	relative viability ([4]; first compound 0.02 µM)	relative viability ([4]; first compound 0.06325 µM)	relative viability ([4]; first compound 0.2 µM)	relative viability ([4]; first compound 0.6325 µM)	relative viability ([4]; first compound 2 µM)
NCI-H1944	0.504	0.616	0.575	0.665	0.611	0.674	0.602	0.55	0.405	0.491	1.09	0.993	1.14	1.16	1.11	0.459	0.491	0.447	0.423	0.414
NCI-H358	0.69	0.669	0.66	0.762	0.594	0.744	0.564	0.613	0.459	0.178	0.531	0.614	0.552	0.702	0.509	0.209	0.203	0.197	0.232	0.205
NCI-H1734	0.705	0.739	0.665	0.94	0.621	0.801	0.715	0.731	0.536	0.322	0.665	0.639	0.589	0.659	0.495	0.476	0.47	0.489	0.51	0.363
A-427	0.905	0.889	0.904		0.904	0.89	0.829	0.892	0.733	0.423	0.927	0.933	0.98		0.932	0.588	0.557	0.536		0.541
RERF-LC-KJ	0.785	0.715	0.741	0.427	0.729	0.704	0.647	0.772	0.649	0.582	0.88	0.888	0.826	0.789	0.823	0.733	0.669	0.663	0.684	0.669
NCI-H727	1.18	1.18	1.14	1.05	1.1	1.26	1.16	1.03	1.24	0.862	0.973	1.06	0.862	0.643	0.759	0.855	0.852	0.999	0.736	0.767
LCLC-97TM1	0.73	0.635	0.747	0.615	0.56	0.719	0.508	0.544	0.525	0.421	0.326	0.357	0.31	0.338	0.209	0.197	0.208	0.242	0.236	0.235
BEN	0.54	0.561	0.513	0.458	0.584	0.569	0.586	0.6	0.662	0.544	0.855	0.683	0.85	0.742	0.761	0.69	0.769	0.799	0.512	0.675
NCI-H2023	0.718	0.664	0.556	0.607	0.519	0.59	0.501	0.707	0.515	0.381	0.695	0.629	0.575	0.666	0.625	0.233	0.211	0.263	0.218	0.216
LC-2-ad	0.753	0.748	0.742	0.745	0.764	0.774	0.7	0.729	0.596	0.387	0.531	0.451	0.448	0.435	0.385	0.828	0.776	0.793	0.854	0.768
ABC-1	1.25	1.29	1.21	0.865	1.15	1.34	0.853	1.3	0.982	0.644	1.03	1.09	0.842	0.75	1.29	1	1.19	0.983	0.959	1.01
NCI-H647	0.336	0.621	0.429	0.548	0.381	0.627	0.411	0.585	0.397	0.356	1.1	1.03	0.992	0.96	0.833	0.44	0.331	0.39	0.418	0.365
NCI-H1755	0.798	0.748	0.619	0.768	0.687	0.8	0.663	0.694	0.579	0.476	0.886	0.905	0.788	0.768	0.833	0.778	0.753	0.711	0.666	0.706
EPLC-272H	0.494	0.529	0.266	0.528	0.41	0.503	0.472	0.318	0.22	0.113	0.942	0.975	1.17	0.974	0.972	0.377	0.389	0.361		0.394
NCI-H1437	0.789	0.912	0.836	0.855	0.688	0.823	0.778	0.947	0.887	0.715	0.897	0.943	0.868	1	0.915	0.541	0.554	0.647	0.624	0.598
